Reference: ChEMBL document CHEMBL1201862, “PubChem BioAssay data set” (2004)
The source made the active and inactive calls.

Tests used:
[1] = biological target: T1, Kappa-type opioid receptor (Homo sapiens, UniProt P41145); experiment: SAR analysis of small molecule antagonists of the kappa opioid receptor via a luminescent beta-arrestin assay - Set 6. [Related pubchem assays (depositor defined):AID1777, AID1778, AID1785, AID1786, AID1966, AID2133, AID2136, AID2285]; type: functional
[2] = biological target: T1, Kappa-type opioid receptor; experiment: SAR analysis of small molecule antagonists of the kappa opioid receptor via a luminescent beta-arrestin assay - Set 4. [Related pubchem assays (depositor defined):AID1777, AID1778, AID1785, AID1786, AID1966, AID2133, AID2136, AID2285]; type: functional
[3] = biological target: Delta-type opioid receptor (Homo sapiens, UniProt P41143); experiment: SAR Analysis of Antagonists of the DOR Receptor using an Image-Based Assay - Set 3. [Related pubchem assays (depositor defined):AID1777, AID1785]; type: functional;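 further: U2OS cells expressing DOR1 and beta-arrestin GFP stimulated with 100 nM SNC80; imaging of GFP-tagged beta-arrestin moving into spots after receptor activation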
Mu-type opioid receptor = Mu-type opioid receptor (Homo sapiens, UniProt P35372); experiment: SAR Analysis of Antagonists of the MOR Receptor using an Image-Based Assay - Set 3. [Related pubchem assays (depositor defined):AID1777, AID1785, AID1786, AID1966, AID2133, AID2136, AID2284, AID2285, AID2420]; type: functional
[4] = biological target: T1, Kappa-type opioid receptor; experiment: SAR analysis of Antagonists of the Kappa Opioid Receptor (KOR) using an Image-Based Assay - Set 4. [Related pubchem assays (depositor defined):AID1777, AID1785]; type: functional
Trypsin = Trypsin (Sus scrofa, UniProt P00761); experiment: trypsin protease activity blockade – biochemical, quenched peptide fluorescence, cherry-pick, selectivity assay for Rce1 protease inhibitor project, dose response (AID 488789)
CAAX prenyl protease 2 = CAAX prenyl protease 2 (Saccharomyces cerevisiae S288c, UniProt Q03530); type: biochemical
[5] = biological target: T2, Dual specificity protein phosphatase 6 (Rattus norvegicus, UniProt Q64346); experiment: inhibition of rat DUSP6 enzyme activity – biochemical, in vitro, primary screen (AID 425)
T2 sequence (Q64346 whole entry): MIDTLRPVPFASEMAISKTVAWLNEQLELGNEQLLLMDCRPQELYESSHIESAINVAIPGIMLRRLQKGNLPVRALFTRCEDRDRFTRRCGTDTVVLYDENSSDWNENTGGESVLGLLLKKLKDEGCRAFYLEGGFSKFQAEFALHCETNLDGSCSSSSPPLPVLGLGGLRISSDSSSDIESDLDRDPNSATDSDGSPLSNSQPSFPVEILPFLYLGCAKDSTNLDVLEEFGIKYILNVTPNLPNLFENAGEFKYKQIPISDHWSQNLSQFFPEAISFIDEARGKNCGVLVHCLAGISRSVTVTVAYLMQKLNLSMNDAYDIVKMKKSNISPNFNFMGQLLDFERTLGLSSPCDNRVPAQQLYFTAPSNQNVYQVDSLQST

[6] = biological target: Serine/threonine-protein phosphatase PP1-alpha catalytic subunit (Homo sapiens, UniProt P62136); experiment: inhibition of protein phosphatase 1 activity – biochemical, fluorescence, dose response (AID 2403);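 further: phosphatase turnover of OMFP into fluorescent 3-O-methylfluorescein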
[7] = biological target: T3, Dual specificity protein phosphatase 3 (Homo sapiens, UniProt P51452); experiment: SAR VHR1 Fluorescent Assay for In Vitro dose response studies. [Related pubchem assays (depositor defined):AID1654, AID1661, AID1878, AID1992, AID2004, AID2070, AID2085]; type: functional
[8] = biological target: T4, Tyrosine-protein phosphatase non-receptor type 7 (Homo sapiens, UniProt P35236); experiment: redox-active compounds inhibiting HePTP phosphatase – biochemical, fluorescence, mechanism study (AID 2068); type: functional
T4 sequence (P35236 whole entry): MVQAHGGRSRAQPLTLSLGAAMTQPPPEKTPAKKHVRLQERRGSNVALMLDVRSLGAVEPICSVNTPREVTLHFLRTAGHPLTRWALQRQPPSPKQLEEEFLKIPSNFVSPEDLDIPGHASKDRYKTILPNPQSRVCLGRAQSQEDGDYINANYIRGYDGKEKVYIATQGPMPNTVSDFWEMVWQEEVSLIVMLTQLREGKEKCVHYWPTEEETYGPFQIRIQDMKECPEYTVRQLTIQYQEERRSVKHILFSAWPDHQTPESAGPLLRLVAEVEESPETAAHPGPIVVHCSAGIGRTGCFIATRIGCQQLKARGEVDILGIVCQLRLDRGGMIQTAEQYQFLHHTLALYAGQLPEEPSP

[9] = biological target: T5, Tyrosine-protein phosphatase non-receptor type 22 (Homo sapiens, UniProt Q9Y2R2); experiment: inhibition of lymphoid tyrosine phosphatase LYP – biochemical, pCAP fluorogenic substrate, fluorescence, set 3, SAR follow-up (AID 449727); type: functional
T5 sequence (Q9Y2R2 whole entry): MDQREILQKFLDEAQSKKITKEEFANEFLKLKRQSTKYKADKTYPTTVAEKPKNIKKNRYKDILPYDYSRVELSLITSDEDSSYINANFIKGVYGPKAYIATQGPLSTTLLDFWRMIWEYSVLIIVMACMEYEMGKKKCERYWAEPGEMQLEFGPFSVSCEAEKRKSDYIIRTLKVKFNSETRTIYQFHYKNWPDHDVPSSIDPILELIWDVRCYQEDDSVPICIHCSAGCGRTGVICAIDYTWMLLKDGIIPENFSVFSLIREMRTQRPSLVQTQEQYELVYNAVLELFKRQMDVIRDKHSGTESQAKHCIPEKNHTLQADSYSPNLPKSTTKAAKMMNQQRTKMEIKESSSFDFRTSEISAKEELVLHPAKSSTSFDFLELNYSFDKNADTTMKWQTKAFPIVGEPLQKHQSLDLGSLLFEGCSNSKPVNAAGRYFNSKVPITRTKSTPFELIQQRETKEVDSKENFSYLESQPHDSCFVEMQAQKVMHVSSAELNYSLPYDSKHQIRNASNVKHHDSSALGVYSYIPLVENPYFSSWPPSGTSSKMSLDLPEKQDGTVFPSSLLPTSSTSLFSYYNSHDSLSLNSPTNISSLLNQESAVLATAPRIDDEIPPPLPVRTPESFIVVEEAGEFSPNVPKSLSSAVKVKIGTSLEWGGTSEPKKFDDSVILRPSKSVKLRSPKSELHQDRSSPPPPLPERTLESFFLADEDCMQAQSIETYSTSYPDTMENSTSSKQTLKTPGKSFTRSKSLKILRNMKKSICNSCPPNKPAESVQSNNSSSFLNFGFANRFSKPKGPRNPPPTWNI

[10] = biological target: T3, Dual specificity protein phosphatase 3; experiment: SAR VHR1 absorbance Assay for In Vitro dose response studies. [Related pubchem assays (depositor defined):AID1654, AID1661, AID1878, AID1992, AID2004]
[11] = biological target: T6, Voltage-gated N-type calcium channel alpha-1B subunit/Amyloid beta A4 precursor protein-binding family A member 1 (Homo sapiens, UniProt Q00975+Q02410); type: protein assay
[12] = biological target: T3, Dual specificity protein phosphatase 3; experiment: VHR1 phosphatase inhibitors, primary screen, biochemical, absorbance, uHTS (AID 1654)
[13] = biological target: Tyrosine-protein phosphatase non-receptor type 12 (Homo sapiens, UniProt Q05209); experiment: SAR Selectivity Analysis of small molecule inhibitors of PEST using pCAP in a fluorescence assay. [Related pubchem assays (depositor defined):AID1779, AID1784, AID2135]; type: functional
[14] = biological target: Serine/threonine-protein phosphatase (Homo sapiens, UniProt Q9BPW0); experiment: Counterscreen for inhibitors of PP1: fluorescence-based biochemical high throughput dose response assay to identify inhibitors of Protein Phosphatase 5 (PP5). [Related pubchem assays: 2034 (Summary (PP5 inhibitors)), 1987 (PP5 inhibitors in singlate), 2235 (PP1 inhibitors in singlate)]
[15] = biological target: T7, Long-chain-fatty-acid--AMP ligase FadD28 (Mycobacterium tuberculosis, UniProt P9WQ59); experiment: Fluorescence polarization aasay to screen for inhibitors that compete for the binding of FadD28 to a bisubstrate Measured in Biochemical System Using Plate Reader - 2147-01_Inhibitor_Dose_CherryPick_Activity.; type: functional, Mycobacterium tuberculosis H37Rv
T7 sequence (P9WQ59 whole entry): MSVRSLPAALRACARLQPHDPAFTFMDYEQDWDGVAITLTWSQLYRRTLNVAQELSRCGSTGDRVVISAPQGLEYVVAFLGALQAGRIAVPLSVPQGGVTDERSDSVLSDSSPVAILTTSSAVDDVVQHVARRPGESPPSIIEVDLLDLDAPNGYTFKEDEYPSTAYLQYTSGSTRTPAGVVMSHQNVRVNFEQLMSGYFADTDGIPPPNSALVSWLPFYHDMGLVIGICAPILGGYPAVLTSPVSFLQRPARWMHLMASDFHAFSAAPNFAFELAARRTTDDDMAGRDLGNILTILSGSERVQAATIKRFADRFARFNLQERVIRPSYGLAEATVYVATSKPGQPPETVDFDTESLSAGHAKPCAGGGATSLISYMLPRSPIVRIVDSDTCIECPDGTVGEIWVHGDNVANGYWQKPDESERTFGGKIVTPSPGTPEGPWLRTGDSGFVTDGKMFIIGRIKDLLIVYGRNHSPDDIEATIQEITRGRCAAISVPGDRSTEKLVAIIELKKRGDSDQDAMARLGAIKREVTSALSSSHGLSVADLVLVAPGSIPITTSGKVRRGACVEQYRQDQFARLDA

[16] = biological target: T3, Dual specificity protein phosphatase 3; experiment: VHR1 phosphatase inhibitors, biochemical (AID 1878)
[17] = biological target: T2, Dual specificity protein phosphatase 6; type: functional
[18] = biological target: T5, Tyrosine-protein phosphatase non-receptor type 22; experiment: SAR LYP1 Fluorescent Assay using OMFP substrate for In Vitro dose response studies - Set 3. [Related pubchem assays (depositor defined):AID1779, AID1784, AID2140, AID2686]; type: functional
[19] = biological target: T6, Voltage-gated N-type calcium channel alpha-1B subunit/Amyloid beta A4 precursor protein-binding family A member 1; type: protein assay; remark: listed apart in the source

T3 sequence (P51452 whole entry): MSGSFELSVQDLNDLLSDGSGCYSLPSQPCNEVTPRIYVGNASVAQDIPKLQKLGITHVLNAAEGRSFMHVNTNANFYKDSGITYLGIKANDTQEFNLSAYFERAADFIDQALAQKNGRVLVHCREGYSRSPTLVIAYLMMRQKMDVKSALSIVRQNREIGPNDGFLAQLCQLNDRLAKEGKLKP
T1 sequence (P41145 whole entry): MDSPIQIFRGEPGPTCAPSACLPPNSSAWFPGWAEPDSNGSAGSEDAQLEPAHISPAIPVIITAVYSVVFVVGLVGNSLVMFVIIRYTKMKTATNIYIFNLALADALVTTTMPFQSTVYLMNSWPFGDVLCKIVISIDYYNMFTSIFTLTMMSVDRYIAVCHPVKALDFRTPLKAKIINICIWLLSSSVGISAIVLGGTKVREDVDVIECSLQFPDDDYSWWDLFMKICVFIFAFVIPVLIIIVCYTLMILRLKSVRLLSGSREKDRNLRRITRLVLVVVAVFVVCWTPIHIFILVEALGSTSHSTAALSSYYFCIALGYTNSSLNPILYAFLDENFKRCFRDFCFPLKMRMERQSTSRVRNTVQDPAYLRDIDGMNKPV
T6 sequence (Q00975 whole entry): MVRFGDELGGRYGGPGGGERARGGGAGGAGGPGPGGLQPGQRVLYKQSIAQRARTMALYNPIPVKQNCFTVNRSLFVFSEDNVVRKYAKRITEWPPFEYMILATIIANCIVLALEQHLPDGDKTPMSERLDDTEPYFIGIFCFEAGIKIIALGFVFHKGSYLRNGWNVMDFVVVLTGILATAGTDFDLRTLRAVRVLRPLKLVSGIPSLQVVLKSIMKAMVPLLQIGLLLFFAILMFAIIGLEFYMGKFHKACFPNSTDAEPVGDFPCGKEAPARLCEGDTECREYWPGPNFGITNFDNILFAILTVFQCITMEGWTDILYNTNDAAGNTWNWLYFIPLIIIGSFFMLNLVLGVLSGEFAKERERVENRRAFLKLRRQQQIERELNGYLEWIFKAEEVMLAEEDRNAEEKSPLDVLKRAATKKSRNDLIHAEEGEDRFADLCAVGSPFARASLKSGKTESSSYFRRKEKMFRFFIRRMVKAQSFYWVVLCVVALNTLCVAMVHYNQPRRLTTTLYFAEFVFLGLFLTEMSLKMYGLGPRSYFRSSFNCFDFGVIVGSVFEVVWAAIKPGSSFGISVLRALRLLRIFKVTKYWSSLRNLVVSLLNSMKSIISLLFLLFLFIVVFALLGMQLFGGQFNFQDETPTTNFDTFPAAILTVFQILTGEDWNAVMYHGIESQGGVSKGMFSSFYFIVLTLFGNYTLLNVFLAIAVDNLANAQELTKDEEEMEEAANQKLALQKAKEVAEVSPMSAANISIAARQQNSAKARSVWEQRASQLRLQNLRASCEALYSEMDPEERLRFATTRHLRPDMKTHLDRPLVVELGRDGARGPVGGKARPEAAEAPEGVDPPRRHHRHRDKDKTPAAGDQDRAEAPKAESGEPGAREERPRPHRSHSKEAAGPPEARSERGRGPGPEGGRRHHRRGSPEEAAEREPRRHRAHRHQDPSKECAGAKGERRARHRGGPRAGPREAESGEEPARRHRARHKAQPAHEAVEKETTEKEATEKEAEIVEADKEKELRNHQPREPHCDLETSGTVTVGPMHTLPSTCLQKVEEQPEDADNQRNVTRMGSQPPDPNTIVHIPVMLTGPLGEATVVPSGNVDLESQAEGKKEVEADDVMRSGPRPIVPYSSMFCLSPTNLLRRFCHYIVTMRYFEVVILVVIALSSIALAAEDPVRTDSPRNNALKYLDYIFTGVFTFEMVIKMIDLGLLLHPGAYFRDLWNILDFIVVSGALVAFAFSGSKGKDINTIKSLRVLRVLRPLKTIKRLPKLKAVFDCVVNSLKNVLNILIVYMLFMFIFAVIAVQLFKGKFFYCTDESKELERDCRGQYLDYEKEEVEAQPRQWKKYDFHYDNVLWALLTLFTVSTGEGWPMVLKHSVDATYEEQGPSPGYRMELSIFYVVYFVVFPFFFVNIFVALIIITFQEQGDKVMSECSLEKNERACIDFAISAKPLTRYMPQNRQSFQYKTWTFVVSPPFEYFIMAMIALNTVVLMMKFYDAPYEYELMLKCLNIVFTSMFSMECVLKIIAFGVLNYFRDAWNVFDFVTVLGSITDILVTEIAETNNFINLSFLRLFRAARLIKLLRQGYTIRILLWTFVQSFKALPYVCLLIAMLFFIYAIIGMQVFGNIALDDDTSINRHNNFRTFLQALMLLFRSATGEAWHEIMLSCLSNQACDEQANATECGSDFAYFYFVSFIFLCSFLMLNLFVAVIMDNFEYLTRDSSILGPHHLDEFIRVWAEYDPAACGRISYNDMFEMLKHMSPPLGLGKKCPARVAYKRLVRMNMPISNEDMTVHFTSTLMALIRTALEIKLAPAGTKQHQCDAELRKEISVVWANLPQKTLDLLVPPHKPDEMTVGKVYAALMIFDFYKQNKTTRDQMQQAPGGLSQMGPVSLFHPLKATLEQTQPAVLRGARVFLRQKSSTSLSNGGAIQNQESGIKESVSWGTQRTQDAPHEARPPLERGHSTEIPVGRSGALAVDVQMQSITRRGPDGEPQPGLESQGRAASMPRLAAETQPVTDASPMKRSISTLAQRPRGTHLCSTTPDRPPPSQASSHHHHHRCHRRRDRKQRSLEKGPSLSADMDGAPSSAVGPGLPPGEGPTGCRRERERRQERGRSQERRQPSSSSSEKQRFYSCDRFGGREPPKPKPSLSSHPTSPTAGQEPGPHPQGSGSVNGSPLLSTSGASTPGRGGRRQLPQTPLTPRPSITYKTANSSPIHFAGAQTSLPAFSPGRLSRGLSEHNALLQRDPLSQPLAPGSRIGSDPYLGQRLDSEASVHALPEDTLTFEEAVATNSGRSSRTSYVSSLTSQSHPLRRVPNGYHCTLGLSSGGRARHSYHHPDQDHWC
T6 sequence (Q02410 whole entry): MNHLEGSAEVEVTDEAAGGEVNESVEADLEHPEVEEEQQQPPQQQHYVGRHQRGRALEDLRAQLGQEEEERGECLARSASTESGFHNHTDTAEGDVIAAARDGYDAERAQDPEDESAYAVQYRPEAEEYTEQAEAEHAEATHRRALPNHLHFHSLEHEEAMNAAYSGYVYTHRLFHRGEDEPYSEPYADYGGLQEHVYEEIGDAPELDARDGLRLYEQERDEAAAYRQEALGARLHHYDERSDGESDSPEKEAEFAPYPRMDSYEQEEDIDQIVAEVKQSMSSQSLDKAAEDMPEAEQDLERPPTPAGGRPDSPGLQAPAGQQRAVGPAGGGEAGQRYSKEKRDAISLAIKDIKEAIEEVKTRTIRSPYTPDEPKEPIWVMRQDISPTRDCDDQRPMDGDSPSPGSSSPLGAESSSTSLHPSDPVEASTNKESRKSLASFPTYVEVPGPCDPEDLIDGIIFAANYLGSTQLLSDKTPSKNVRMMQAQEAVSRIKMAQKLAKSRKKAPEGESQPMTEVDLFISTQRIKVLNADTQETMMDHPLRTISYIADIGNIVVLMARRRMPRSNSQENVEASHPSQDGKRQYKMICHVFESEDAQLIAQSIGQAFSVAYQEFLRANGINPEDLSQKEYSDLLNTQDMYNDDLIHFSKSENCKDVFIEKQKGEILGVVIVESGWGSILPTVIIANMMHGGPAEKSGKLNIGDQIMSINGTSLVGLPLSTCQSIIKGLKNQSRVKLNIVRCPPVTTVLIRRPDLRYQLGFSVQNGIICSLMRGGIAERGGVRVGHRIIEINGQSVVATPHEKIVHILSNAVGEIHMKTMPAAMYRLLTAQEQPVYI
Sequence of CAAX prenyl protease 2 (Q03530 whole entry): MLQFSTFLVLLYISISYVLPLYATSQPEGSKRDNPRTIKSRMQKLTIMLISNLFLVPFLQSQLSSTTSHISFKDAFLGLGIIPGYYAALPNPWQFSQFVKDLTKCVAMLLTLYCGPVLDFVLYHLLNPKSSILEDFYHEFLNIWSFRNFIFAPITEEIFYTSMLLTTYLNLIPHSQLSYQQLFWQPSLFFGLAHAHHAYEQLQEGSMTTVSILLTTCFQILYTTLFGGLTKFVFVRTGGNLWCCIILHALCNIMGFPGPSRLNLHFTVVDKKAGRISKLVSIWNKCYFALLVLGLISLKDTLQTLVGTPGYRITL
Sequence of Tyrosine-protein phosphatase non-receptor type 12 (Q05209 whole entry): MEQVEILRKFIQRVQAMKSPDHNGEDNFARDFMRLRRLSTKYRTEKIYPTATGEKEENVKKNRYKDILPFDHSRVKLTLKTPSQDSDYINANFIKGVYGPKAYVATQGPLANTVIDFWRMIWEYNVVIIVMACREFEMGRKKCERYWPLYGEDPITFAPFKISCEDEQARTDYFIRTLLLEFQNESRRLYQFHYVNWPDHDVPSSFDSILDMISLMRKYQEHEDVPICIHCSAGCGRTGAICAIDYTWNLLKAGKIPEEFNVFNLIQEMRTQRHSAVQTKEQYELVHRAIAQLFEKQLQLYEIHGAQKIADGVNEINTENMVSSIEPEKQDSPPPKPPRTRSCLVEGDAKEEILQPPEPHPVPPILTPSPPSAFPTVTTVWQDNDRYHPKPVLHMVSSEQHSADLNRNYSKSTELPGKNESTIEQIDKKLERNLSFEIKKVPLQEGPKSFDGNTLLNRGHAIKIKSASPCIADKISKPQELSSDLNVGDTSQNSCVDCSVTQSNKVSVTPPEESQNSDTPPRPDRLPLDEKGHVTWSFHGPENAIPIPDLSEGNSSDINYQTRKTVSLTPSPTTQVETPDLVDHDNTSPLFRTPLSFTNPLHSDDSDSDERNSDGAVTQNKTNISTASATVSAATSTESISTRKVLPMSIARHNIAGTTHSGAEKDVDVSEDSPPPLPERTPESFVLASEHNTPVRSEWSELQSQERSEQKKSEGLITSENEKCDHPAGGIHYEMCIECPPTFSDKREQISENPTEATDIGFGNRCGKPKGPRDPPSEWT
Sequence of Trypsin (P00761 whole entry): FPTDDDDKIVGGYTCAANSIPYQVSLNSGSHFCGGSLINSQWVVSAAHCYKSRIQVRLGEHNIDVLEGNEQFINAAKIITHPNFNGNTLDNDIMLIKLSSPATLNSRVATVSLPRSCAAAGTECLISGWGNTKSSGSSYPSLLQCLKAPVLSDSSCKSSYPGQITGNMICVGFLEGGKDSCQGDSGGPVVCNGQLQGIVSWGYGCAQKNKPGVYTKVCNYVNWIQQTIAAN

Which IC50 [1] does the source give for Cc1ccc(S(=O)(=O)NCc2ccc(C(=O)NCCN3CCc4ccccc4C3)cc2)cc1 here?
Its IC50 is > 20 µM (inactive).

And the IC50 [2]?
The IC50 was > 20 µM (inactive).

What about the IC50 [3] of the same molecule?
Its IC50 is > 32 µM (inactive).

And the IC50 (Mu-type opioid receptor)?
Its IC50 is > 32 µM (inactive).

And the IC50 [4]?
Its IC50 is 5.98 µM (active).

N#Cc1nc(-c2ccco2)oc1N1CCN(C(c2ccccc2)c2ccccc2)CC1 was tested. Which AC50 (Trypsin) did it give?
Its AC50 is 41.5 µM (active).

What about the AC50 (CAAX prenyl protease 2) of the same molecule?
The AC50 was 0.99 µM (active).

What does the source list for COc1cc(/C=C2\SC(=O)N(CC(=O)Nc3ccc(C)cc3)C2=O)cc(Cl)c1OCC(=O)O?
IC50 [5]: 75.2 µM (active); IC50 [6]: 6.24 µM (active); IC50 [7]: 1.18 µM (active); IC50 [8]: 0.256 µM (active); IC50 [9]: 0.803 µM (active); IC50 [10]: 2.4 µM (active); IC50 [11]: > 50 µM (inactive); IC50 [12]: 5.01 µM (active); IC50 [13]: 0.313 µM (active); IC50 [14]: > 67 µM (not active); AC50 [15]: > 100 µM (inactive); IC50 [16]: < 1.23 µM (inactive); IC50 [17]: 6.66 µM (active); IC50 [18]: 1.51 µM (active); IC50 [19]: 6.91 µM (active)
